Laboratory results published in patent publication US12569479B2 (priority 2016, dated 2026).
Like-named read-outs stand apart in the source and are kept apart here.

Legend:
[1] = tested on: metabolism of dextromethorphan to dextrorphan in human liver microsomes; assay: Inhibition of the metabolism of dextromethorphan in human liver microsomes; details: human, human liver microsomes, pH 7.4, probe dextromethorphan (5 μM)
Description: (§1) The ability of various antidepressant compounds to inhibit the metabolism of dextromethorphan was examined using human liver microsomes.
(§2) After optimal incubation at 37° C., the reactions were terminated by addition of methanol containing internal standard for analytical quantification. The quenched samples were incubated at 4° C. for 10 minutes and centrifuged at 4° C. for 10 minutes. The supernatant was removed, and the metabolite of dextromethorphan (dextrorphan) was analyzed by LC-MS/MS.

[2] = tested on: metabolism of dextromethorphan in human liver microsomes; assay: as above; details: read-out: Mean IC50; human liver microsomes 0.5 mg/mL, dextromethorphan 5 μM, 37° C.; dextrorphan formation
Description: as §1, §2

[3] = tested on: metabolism of dextromethorphan in human liver microsomes
Description: as §1, §2

[4] = tested on: metabolism of dextromethorphan to dextrorphan in human liver microsomes; assay: in vitro; details: pH 7.4
Description: as §1, §2

[5] = Pharmacokinetic study of dextromethorphan (DM) alone or DM in combination with bupropion, plasma concentrations by LC-MS/MS; details: for Cmax: Dextromethorphan Cmax; for average plasma concentration: Day 8, after bupropion administration
[6] = tested on: dextromethorphan metabolism (dextromethorphan/dextrorphan metabolic ratio); assay: Phenotypic determination of dextromethorphan metabolizer status (dextromethorphan/dextrorphan metabolic ratio); details: Day 8; 3 hours after dosing
Description: (§3) Plasma concentrations of dextromethorphan and dextrorphan 3 hours after dosing were used, with a dextromethorphan/dextrorphan ratio of 0.3 or greater indicating a poor metabolizer phenotype.

[7] = tested on: patients with agitation associated with Alzheimer's disease; assay: Phase 2/3 randomized, double-blind, controlled trial of DM/BU in agitation associated with Alzheimer's disease
Description: (§4) A Phase 2/3 randomized, double-blind, controlled, multicenter, U.S. clinical trial was conducted to evaluate the efficacy and safety of DM/BU in patients with agitation associated with Alzheimer's disease. […] Subsequently, patients were randomized in a 1:1 ratio to receive DM/BU or placebo. […] The minimum score on the CMAI is 29, corresponding to the total absence of symptoms, with higher scores corresponding to greater agitation. The primary endpoint of the study was the change from baseline in the CMAI total score at Week 5. P-values were calculated based on least square mean estimates.

[8] = human, in vivo
[9] = tested on: adult patients with moderate to severe major depressive disorder (MDD); assay: Phase 2 randomized, double-blind, active-controlled trial of DM/BU in major depressive disorder; assay type: in vivo, human; details: twice daily for 6 weeks; DM/BU 45 mg/105 mg or bupropion 105 mg
Description: The changes from baseline in the Montgomery-Asberg Depression Rating Scale (MADRS) total score over the 6-week treatment period were calculated at each time point and averaged.

[10] = tested on: daily smokers using 10 or more cigarettes per day (nicotine addiction); assay: Phase 2 randomized, double-blind, active-controlled study of DM/BU for smoking cessation treatment; assay type: in vivo, human
Excerpt: Enrolled subjects were daily smokers using 10 or more cigarettes per day.
The primary outcome measure was the change in smoking intensity, measured using the number of cigarettes smoked per day, assessed via daily smoking diaries.

[11] = tested on: patients with agitation associated with Alzheimer's disease; details: both, human, in vivo, 5 weeks
Description: as §4

[12] = tested on: dextromethorphan metabolism (dextromethorphan/dextrorphan metabolic ratio); details: human, in vivo, 3 h
Description: as §3

[13] = tested on: patients with treatment resistant depression (TRD); assay: Phase 3 randomized, double-blind, active controlled trial of DM/BU in treatment resistant depression
Excerpt: Inclusion criteria for the open-label period included males or females 18-65 years of age, a history of inadequate response to 1 or 2 prior antidepressant treatments, established by the Antidepressant Treatment Response Questionaire (ATRQ), and a Hamilton Depression Rating Scale (HAMD-17) total score of ≥18. Inclusion criteria for the double-blind period included inadequate response to 2 or 3 prior antidepressant treatments, including open-label period failure. Exclusion criteria included a history of electroconvulsive therapy, vagus nerve stimulation, transcranial magnetic stimulation, or any experimental central nervous system treatment during the current episode or in the past 6 months, schizophrenia, bipolar disorder, obsessive compulsive disorder, psychiatric symptoms secondary to any other general medical condition.
The change in depressive symptoms over time was measured using the Montgomery-Asberg Depression Rating Scale (MADRS) and the Quick Inventory of Depressive Symptomatology-Self-Rated (QIDS-SR-16). The primary endpoint was the change from baseline in the MADRS after 6 weeks of treatment. The key secondary endpoints were the change from baseline in the MADRS after 1 week of treatment, after 2 weeks of treatment, the average change over entire 6-week double-blind treatment period, and the Sheehan Disability Scale (SDS). Other pre-specified secondary efficacy variables included the Cognitive subscale of the Massachusetts General Hospital Cognitive and Physical Functioning Questionnaire (CPFQ), and the Hamilton Anxiety Scale (HAM-A).

[14] = DM/BU 45 mg/105 mg or bupropion 150 mg twice daily
[15] = Open-label Period, bupropion 150 mg twice daily

CN(C)CC(c1ccc(O)cc1)C1(O)CCCCC1 (centres unmarked) [Desvenlafaxine]
IC50 [1]: 97.3 µM

COCCCC/C(=N\OCCN)c1ccc(C(F)(F)F)cc1 [Fluvoxamine]
IC50 [1]: 6.5 µM

C[C@H]1NC(C)(C)CO[C@]1(O)c1cccc(Cl)c1 [(R,R)-Hydroxybupropion]
IC50 [2]: 8.2 µM

CNCC[C@H](Oc1cccc2ccccc12)c1cccs1 [(S)-Duloxetine]
IC50 [3]: 4.1 µM

CN(C)CCC[C@@]1(c2ccc(F)cc2)OCc2cc(C#N)ccc21 [Escitalopram]
IC50 [1]: 17.1 µM

COc1ccc(C(CN(C)C)C2(O)CCCCC2)cc1 (centres unmarked) [Venlafaxine]
IC50 [4]: 27.7 µM

CN(C)CCCC1(c2ccc(F)cc2)OCc2cc(C#N)ccc21 (centres unmarked) [Citalopram]
IC50 [1]: 14.1 µM

C[C@@H]1NC(C)(C)CO[C@@]1(O)c1cccc(Cl)c1 [(25,3S)-Hydroxybupropion]
IC50 [2]: 12.5 µM

COc1ccc2c(c1)[C@]13CCCC[C@@H]1[C@H](C2)N(C)CC3 [Dextromethorphan]
Mean Trough Dextromethorphan Plasma Concentrations ([5]; Day 1): 0.7 ng/mL
Mean Trough Dextromethorphan Plasma Concentrations ([5]; Day 5): 1.2 ng/mL
Mean Trough Dextromethorphan Plasma Concentrations ([5]; Day 6): 1.3 ng/mL
Mean Trough Dextromethorphan Plasma Concentrations ([5]; Day 7): 1.2 ng/mL
Dextromethorphan Cavg ([5]; Day 8): 2.3 ng/mL
Dextromethorphan Cmin ([5]; Day 8): 1.1 ng/mL
Mean Trough Dextromethorphan Plasma Concentrations ([5]; Day 8): 1.1 ng/mL
mean elimination half-life (T1/2 el) of dextromethorphan ([5]; Day 8): 6.6 h
AUC(0-inf) ([5]; human, in vivo, 60 mg): 41.2 ng·h/mL
Tmax ([5]; human, in vivo, 60 mg): 2.3 h
concentration at 0 h ([5]; human, in vivo, 60 mg): 1.2 ng/mL
concentration at 1 h ([5]; human, in vivo, 60 mg): 2.4 ng/mL
concentration at 2 h ([5]; human, in vivo, 60 mg): 3.6 ng/mL
concentration at 3 h ([5]; human, in vivo, 60 mg): 3.6 ng/mL
concentration at 4 h ([5]; human, in vivo, 60 mg): 3.3 ng/mL
concentration at 6 h ([5]; human, in vivo, 60 mg): 2.5 ng/mL
concentration at 8 h ([5]; human, in vivo, 60 mg): 1.9 ng/mL
concentration at 12 h ([5]; human, in vivo, 60 mg): 1.1 ng/mL
concentration at 24 h ([5]; human, in vivo, 60 mg): 0.4 ng/mL
concentration at 36 h ([5]; human, in vivo, 60 mg): 0.1 ng/mL
AUC(0-t) ([5]; human, in vivo, 60 mg, Dextromethorphan AUC0-12, Day 1): 20.1 ng·h/mL
AUC(0-t) ([5]; human, in vivo, 60 mg, Dextromethorphan AUC0-12, Day 8): 28.1 ng·h/mL
AUC(0-t) ([5]; human, in vivo, 60 mg, Dextromethorphan AUC0-24, Day 8): 37.1 ng·h/mL
Cmax ([5]; human, in vivo, 60 mg, Day 1): 3 ng/mL
Cmax ([5]; human, in vivo, 60 mg, Day 8): 3.8 ng/mL
mean plasma dextromethorphan/dextrorphan metabolic ratio [6]: remained unchanged

C[C@H](NC(C)(C)C)[C@@H](O)c1cccc(Cl)c1 [Threohydroxybupropion]
average plasma concentration [5]: ≥ 100 ng/mL
IC50 [2]: 3.9 µM

CC(NC(C)(C)C)C(=O)c1cccc(Cl)c1.Cl (racemic) [Bupropion]
Deaths, % of subjects ([7]; Safety Population): (2.0%
Deaths, number of subjects ([7]; Safety Population): 1 subjects
Deaths, number of subjects ([7]; Safety Population, listed as bupropion): one
mean reduction from baseline in the CMAI total score ([7]; Week 5 (primary endpoint)): 10.0 points
reduction in mean dextrorphan AUC0-12 [8]: ~55%
reduction in mean dextrorphan Cmax [8]: ~78%
Change in MADRS Total Score at week 6 [9]: −12.1
Change in MADRS Total Score over 6-week period (averaged) [9]: −8.8
IC50 [1]: 9.1 µM
proportion of smokers with more than 50% reduction in expired carbon monoxide levels ([10]; 3-week period): 30.4%
average reduction in cigarettes smoked per day ([10]; over the 3-week period, twice daily): 6.79 cigarettes per day
Diarrhea, number of subjects [11]: 3 subjects
Discontinuation due to AEs, number of subjects [11]: 1 subjects
Dizziness, number of subjects [11]: 5 subjects
Falls, % of subjects [11]: (14.3%)
Falls, number of subjects [11]: 7 subjects
Fatigue, % of subjects [11]: (10.2%)
Fatigue, number of subjects [11]: 5 subjects
Headache, % of subjects [11]: (6.1%)
Headache, number of subjects [11]: 3 subjects
Insomnia, % of subjects [11]: (6.1%)
Insomnia, number of subjects [11]: 3 subjects
Serious AEs, number of subjects [11]: 4 subjects
Somnolence, number of subjects [11]: 2 subjects
Subjects with any TEAE, % of subjects [11]: (61.2%)
Subjects with any TEAE, number of subjects [11]: 30 subjects
subjects converted to poor metabolizer status [12]: 100%
mean reduction in MADRS averaged over the entire 6-week treatment period [13, 14]: 6.7
mean reduction in QIDS-SR-16 averaged over the entire 6-week treatment period [13, 14]: 2.3
Anxiety, number of subjects ([13]; Double-blind Period): 0 subjects
Any TEAE, % of subjects ([13]; Double-blind Period): (39.1%)
Any TEAE, number of subjects ([13]; Double-blind Period): 61 subjects
Constipation, % of subjects ([13]; Double-blind Period): (1.9%)
Constipation, number of subjects ([13]; Double-blind Period): 3 subjects
Dizziness, number of subjects ([13]; Double-blind Period): 0 subjects
Dry mouth, % of subjects ([13]; Double-blind Period): (1.9%)
Dry mouth, number of subjects ([13]; Double-blind Period): 3 subjects
Headache, % of subjects ([13]; Double-blind Period): (4.5%)
Headache, number of subjects ([13]; Double-blind Period): 7 subjects
Insomnia, % of subjects ([13]; Double-blind Period): (3.2%)
Insomnia, number of subjects ([13]; Double-blind Period): 5 subjects
Irritability, % of subjects ([13]; Double-blind Period): (1.3%)
Irritability, number of subjects ([13]; Double-blind Period): 2 subjects
Nausea, % of subjects ([13]; Double-blind Period): (1.9%)
Nausea, number of subjects ([13]; Double-blind Period): 3 subjects
rate of discontinuation due to adverse events ([13]; Double-blind Period): 1.9%
Anxiety, % of subjects ([13]; Open-label Period): (3.5%)
Anxiety, number of subjects ([13]; Open-label Period): 11 subjects
Constipation, % of subjects ([13]; Open-label Period): (4.2%)
Constipation, number of subjects ([13]; Open-label Period): 13 subjects
Dizziness, % of subjects ([13]; Open-label Period): (2.9%)
Dizziness, number of subjects ([13]; Open-label Period): 9 subjects
Dry mouth, % of subjects ([13]; Open-label Period): (4.2%)
Dry mouth, number of subjects ([13]; Open-label Period): 13 subjects
Headache, % of subjects ([13]; Open-label Period): (4.5%)
Headache, number of subjects ([13]; Open-label Period): 14 subjects
Insomnia, % of subjects ([13]; Open-label Period): (6.1%)
Insomnia, number of subjects ([13]; Open-label Period): 19 subjects
Irritability, % of subjects ([13]; Open-label Period): (3.2%)
Irritability, number of subjects ([13]; Open-label Period): 10 subjects
Nausea, % of subjects ([13]; Open-label Period): (7.1%)
Nausea, number of subjects ([13]; Open-label Period): 22 subjects
Any TEAE, % of subjects [13, 15]: (43.5)
Any TEAE, number of subjects [13, 15]: 135 subjects
mean MADRS reduction ([13]; Week 1): 3.6
mean MADRS reduction ([13]; Week 2): 6.1
rate of remission from depression (QIDS-SR-16 ≤5) ([13]; Week 6): 8.2%
mean MADRS reduction ([13]; Week 6 (primary endpoint)): 9.4

CC(NC(C)(C)C)C(O)c1cccc(Cl)c1 (centres unmarked) [Erythrohydroxybupropion]
average plasma concentration [5]: ≥ 20 ng/mL
IC50 [2]: 1.4 µM

C[C@H]1NC(C)(C)CO[C@]1(O)c1cccc(Cl)c1 [hydroxybupropion]
average plasma concentration [5]: ≥ 200 ng/mL
